# Patent publication US20100075907A1, “NEUROMEDIN U RECEPTOR AGONISTS AND USES THEREOF” (priority 2006, published 2010)
# pEC50, pIC50: −log10 of the molar value. Non-standard residues stand in square brackets, D forms with d. Residues, ends and D or L forms follow the SMILES beside them. *: point of attachment. Succinimide(1-Et,3-yl) = CCN1C(=O)CC(*)C1=O
# How the values were obtained:
# Mouse NMUR1-CTG = target: T1, Mouse NMUR1-CTG (Mus musculus, UniProt O55040); experiment: FLIPR calcium mobilization assay, mouse NMUR1-CTG; type: cell-based; set-up: expressed in transfected cells; host or cells: FLP-In CHO or HEK-293 FLP-In cells (pcDNA5); settings: for pIC50: functional data
# T1 sequence (O55040 1-428): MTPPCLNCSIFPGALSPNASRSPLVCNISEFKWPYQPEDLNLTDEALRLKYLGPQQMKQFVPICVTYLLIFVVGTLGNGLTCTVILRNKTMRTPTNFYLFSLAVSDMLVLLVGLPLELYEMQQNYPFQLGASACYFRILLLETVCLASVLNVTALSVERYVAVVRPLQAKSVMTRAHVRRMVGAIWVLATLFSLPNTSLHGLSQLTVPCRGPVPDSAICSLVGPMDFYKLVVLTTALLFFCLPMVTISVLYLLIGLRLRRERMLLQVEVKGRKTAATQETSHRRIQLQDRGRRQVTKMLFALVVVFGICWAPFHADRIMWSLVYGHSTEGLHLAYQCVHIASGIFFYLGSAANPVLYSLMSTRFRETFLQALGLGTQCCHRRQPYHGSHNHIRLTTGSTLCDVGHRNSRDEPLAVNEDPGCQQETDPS
# From the text: Human, mouse or rat cDNAs encoding NMUR1 or NMUR2 (as described in Howard et al. Nature 406: 70-74 (2000) were subcloned in pcDNA5 (Invitrogen) and transfected into FLP-In CHO cells and HEK-293 FLP-In cells purchased from Invitrogen (Carlsbad, Calif.) using lipofectamine (Invitrogen). The Flp-In system allows integration and expression of a particular gene of interest at a specific genomic location utilizing the Flp recombinase from yeast. The transfected cells were selected by growth in medium containing 200 μg/mL hygromycin (Invitrogen). Populations were frozen at early passage numbers, and these stocks were used for further studies. Stable clones that expressed the mRNAs were identified functionally by FLIPR as well as by RT-PCR. […] Two different rodent NMUR1 cell lines were thus generated: one with the codon as predicted from the genomic databases and another cell line with an engineered methionine (ATG) as the start codon. Additionally, stable cell lines expressing the human receptors were generated in HEK-293/aeq17 cells which stably express the aequorin gene under the CMV promoter. The human NMUR2 cDNA was cloned into pcDNA3.1 and human NMUR1 was subcloned into pIRES-puro (Clontech, Mountain View, Calif.), after transfection cells were selected in media containing G418 and either hygromycin (NMUR2) or puromycin (NMUR1).
# The NMU receptors signal primarily through Gαq/11 proteins; therefore calcium mobilization assays can be utilized for functional activity.
# Stable cell lines expressing human and or rodent NMUR1 or human NMUR2 receptors were plated at a density of 12,000 cells per well overnight on poly-lysine coated 384-well black-walled plates. The following day, the media was removed from the plates and the cells were subsequently loaded with Fluo-3 (Molecular Probes), a calcium sensitive dye, diluted in FLIPR buffer (1× Hank's buffered saline containing 20 mM HEPES, 0.1% BSA, 2.5 mM probenecid (Sigma) and 1.6 mM TR40). All reagents are from Invitrogen unless otherwise noted. Peptide stocks were resuspended in DMSO at a stock concentration of 2 mM and diluted in FLIPR buffer on the day of the experiment to a 4 μM working stock solution.
# After a 90 minute incubation at room-temperature, cell plates were loaded onto a FLIPR (Molecular Devices) to monitor cellular fluorescence (excitation=488 nm; emission=540 nm) before and after compound/peptide addition. Eight to twelve point dose responses were tested on NMUR-expressing cell lines using FLIPR with 1 μM peptide as the highest dose. The response after peptide addition was taken as the maximum fluorescence units minus the fluorescence immediately prior to stimulation for each well. EC50 values were calculated using GraphPad Prism (San Diego, Calif.) software.
# In vitro responses of Neuromedin U receptor agonists (NMU1 to NMU25) in the FLIPR assay for human (Table 3), mouse (Table 4) and rat (Table 5) NMUR1 and NMUR2. EC50s are reported in nM values. Percent activity refers to the maximum response at 1 μM compared to the hNMU-25 response at the same concentration. NT=not tested.
# hNMUR2 = hNMUR2 (Homo sapiens, UniProt Q9GZQ4); experiment: 125I-hNMU-25 binding assay, human NMUR2 membranes; set-up: expressed in transfected cells; host or cells: HEK-293 FLP-In cells (pcDNA5); HEK-293/aeq17 lines (pcDNA3.1) were also made; % inhibition of NMU-25 binding / % Activity: concentration or dose not given beside the values; settings: for pIC50: binding; for pIC50 / % inhibition of NMU-25 binding: human R2
# Chain of hNMUR2 (Q9GZQ4 whole entry): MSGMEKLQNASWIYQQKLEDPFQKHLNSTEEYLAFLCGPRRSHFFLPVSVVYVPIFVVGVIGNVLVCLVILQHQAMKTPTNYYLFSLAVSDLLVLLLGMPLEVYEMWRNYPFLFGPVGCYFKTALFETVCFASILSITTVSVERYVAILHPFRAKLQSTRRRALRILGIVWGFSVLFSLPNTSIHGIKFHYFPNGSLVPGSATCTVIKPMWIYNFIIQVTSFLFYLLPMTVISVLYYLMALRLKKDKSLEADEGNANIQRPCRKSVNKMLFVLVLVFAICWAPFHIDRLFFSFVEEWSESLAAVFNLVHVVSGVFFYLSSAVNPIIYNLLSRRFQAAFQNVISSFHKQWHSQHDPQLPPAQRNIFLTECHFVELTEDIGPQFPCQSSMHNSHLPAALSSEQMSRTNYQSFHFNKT
# Protocol: Confluent cell monolayers expressing NMU receptors (the HEK cells described above) were harvested with phosphate buffered saline, collected by centrifugation, and resuspended in membrane buffer (50 mM TrisCl pH 7.4, 5 mM MgCl2, 1× Protease Inhibitor Cocktail, 10 μM phosphoramidon). After the cell pellet was homogenized, the solution was centrifuged at 18,000 rpm for 20 minutes at 4° C. The pellet was resuspended in membrane buffer to yield a final concentration of 0.5-5 μg/μL of membrane and stored at −80° C.
# Experiments were performed in assay buffer (25 mM TrisCl, pH 7.4, 10 mM MgCl2, 2 mM EDTA, 1× Protease Inhibitor Cocktail, 100 μg/mL Bacitricin, 10 μM phosphoramidon) in 200 μL volumes in a 96-well format using 2-5 μg of membrane and 0.1 nM ^125I-hNMU-25 (about 12,000 cpm/well). For non-specific binding, 1 μM hNMU-25 was added. About 5 μL of peptides were added to measure antagonist activity, and the entire reaction was incubated at room temperature with shaking for 80 minutes. The reaction was terminated by rapid filtration through 0.3% poly-ethylenimine presoaked Millipore 96-well filter plates and washed with ice-cold buffer (5 mM TrisCl pH 7.4, 10 mM MgCl2, 2.5 mM EDTA, 0.04% Triton X-100). Plates were air-dried overnight at room temperature and recovered radioactivity was determined by standard scintillation counting. IC50 values were determined using GraphPad Prism software.
# Concentration-response curves and radioligand-binding data were fitted using Prism (GraphPad Software). Results are summarized below in Tables 8 and 9.
# [1] = functional, mouse R1-CTG, relative to native hNMU responses
Compound,pIC50 (Mouse NMUR1-CTG; mouse R1-CTG),% Activity (Mouse NMUR1-CTG; [1]) [%],"% Activity (hNMUR2; Table 8, HEK-hR2, binding) [%]",pIC50 (hNMUR2),% inhibition of NMU-25 binding (hNMUR2) [%],"pEC50 (Mouse NMUR1-CTG; FLIPR, mouse NMUR1-CTG)","% Activity (Mouse NMUR1-CTG; maximum response at 1 μM compared to hNMU-25, mouse NMUR1-CTG) [%]","% Activity (hNMUR2; Table 9, HEK-hR2, binding) [%]"
CC(C)C[C@@H](NC(=O)[C@H](Cc1ccccc1)NC(=O)[C@H](Cc1ccc(O)cc1)NC(=O)CNC(=O)[C@H](CCCNC(=N)N)NC(=O)[C@H](CO)NC(=O)[C@H](CCC(N)=O)NC(=O)[C@H](CO)NC(=O)[C@H](C)NC(=O)[C@H](Cc1ccccc1)NC(=O)[C@@H]1CCCN1C(=O)[C@H](CO)NC(=O)[C@H](CCC(N)=O)NC(=O)[C@H](Cc1ccccc1)NC(=O)[C@H](CCC(=O)O)NC(=O)[C@H](CCC(=O)O)NC(=O)[C@H](CC(=O)O)NC(=O)[C@@H](NC(=O)[C@H](CCCNC(=N)N)NC(=O)[C@@H](N)Cc1ccccc1)C(C)C)C(=O)N[C@@H](Cc1c[nH]c2ccccc12)C(=O)N[C@@H](CCCNC(=N)N)C(=O)N1CCC[C@H]1C(=O)N[C@@H](CCCNC(=N)N)C(=O)N[C@@H](CC(N)=O)C(N)=O [Agonist H] (H-FRVDEEFQSPFASQSRGYF[dL]WRPRN-NH2; N-terminus assumed),7.18,77,7,6.11,7,–,–,–
"CCN1C(=O)CC(SC[C@H](NC(C)=O)C(=O)N[C@@H](Cc2ccccc2)C(=O)N[C@@H](CCCNC(=N)N)C(=O)N[C@H](C(=O)N[C@@H](CC(=O)O)C(=O)N[C@@H](CCC(=O)O)C(=O)N[C@@H](CCC(=O)O)C(=O)N[C@@H](Cc2ccccc2)C(=O)N[C@@H](CCC(N)=O)C(=O)N[C@@H](CO)C(=O)N2CCC[C@H]2C(=O)N[C@@H](Cc2ccccc2)C(=O)N[C@@H](C)C(=O)N[C@@H](CO)C(=O)N[C@@H](CCC(N)=O)C(=O)N[C@@H](CO)C(=O)N[C@@H](CCCNC(=N)N)C(=O)NCC(=O)N[C@@H](Cc2ccc(O)cc2)C(=O)N[C@@H](Cc2ccccc2)C(=O)N[C@H](C)C(=O)N[C@@H](Cc2c[nH]c3ccccc23)C(=O)N[C@@H](CCCNC(=N)N)C(=O)N2CCC[C@H]2C(=O)N[C@@H](CCCNC(=N)N)C(=O)N[C@@H](CC(N)=O)C(N)=O)C(C)C)C1=O (some centres unmarked) [NMU13] (Ac-C(Succinimide(1-Et,3-yl))FRVDEEFQSPFASQSRGYF[dA]WRPRN-NH2)",7.85,88,–,< 6.00,48,6.85,73.6,–
"H-FRVDEEFQSPFASQSRGYFLFRPRN-NH2 [hNMU-25, reference compound]",8.54,–,–,10.25,–,–,–,100
